# In PubChem BioAssay AID1996:
# Conditions: buffer; pH 7.4; 200.0 µM
row,Compound,solubility kinetic
1,CCOCCCNC(=O)C1CC(=O)N(CCc2ccc(C)cc2)C1 (stereo not given),> 49.9 µg/mL
2,O=C(CSc1ccccc1C(=O)N1CCN(c2ccc([N+](=O)[O-])cc2)CC1)N1CCCC1,> 68.2 µg/mL
3,CCOc1ccc(/C=C/C(=O)NC2CCCCC2)cc1,< 0.6 µg/mL
4,CCOC(=O)c1cc(C)[nH]c1C,24.7 µg/mL
5,CC(C)n1c(NCc2ccc(Cl)cc2)nc2ccccc21,0.7 µg/mL
6,CC1CN(C(=O)COc2ccc3ccccc3c2)CC(C)O1 (stereo not given),> 44.9 µg/mL
7,CCOC(=O)C1CCN(C(=O)COC(=O)C23CC4CC(CC(C4)C2)C3)CC1,50.7 µg/mL
8,CN(C(=O)COC(=O)c1ccc(Cl)cc1N)C1CCCCC1,0.7 µg/mL
9,C=CCn1c(C(CC)CC)nc2ccccc21,27.9 µg/mL
10,CC(=O)Nc1cc2nc(C)n(Cc3ccc([N+](=O)[O-])cc3)c2nc1C,> 50.9 µg/mL
11,Cc1ccc(CONS(=O)(=O)c2cc(C)ccc2C)cc1,5.2 µg/mL
12,CC1CCN(C(=O)CN2C(=O)COc3ccc(Cl)cc32)CC1,> 48.4 µg/mL
13,Cc1cc(=O)oc(C)c1C(=O)Nc1ccc(N(C)C)cc1,> 42.9 µg/mL
14,c1ccc(-c2csc(-c3ccncc3)n2)cc1,24.8 µg/mL
15,C#CCOc1ccc(C2C(C#N)=C(N)Oc3cc(O)ccc32)cc1 (stereo not given),34.5 µg/mL
16,Cc1ccc(NC2=CC(=O)CC(C)(C)C2)cc1Cl,16.2 µg/mL
17,O=C1Nc2ccccc2Nc2ccccc21,20.9 µg/mL
18,O=C(CCSc1ccc(Cl)cc1)NC1CCCC1,32.3 µg/mL
19,Cc1ccccc1C(=O)NCCCNC(=O)c1ccco1,42.9 µg/mL
20,COc1ccc(NC(=O)CCc2nc3ccccc3c(=O)[nH]2)cc1S(=O)(=O)N1CCCCC1,9.6 µg/mL
21,Cn1c(CNC(=O)c2ccccc2F)cc2ccccc21,10.1 µg/mL
22,CCCCCCC1CC(=O)NC(=O)N1 (stereo not given),27.8 µg/mL
23,O=C(c1cccc(NS(=O)(=O)c2cccc(F)c2)c1)N1CCCC1,51 µg/mL
24,Cc1ccc(CNCc2cccnc2)s1.Cl,> 38.2 µg/mL

row,Compound,solubility kinetic
1,Cc1ccc(S(=O)(=O)N2CC(=NN=C(N)N)C2)cc1,> 42.2 µg/mL
2,CCc1nn(C)c(N)c1C.Cl,> 26.3 µg/mL
3,Nc1nc(-c2ccccc2)c(C(=O)Nc2ccccc2)s1,9.4 µg/mL
4,CCN(CC)S(=O)(=O)N1CCC(C(=O)NCc2ccco2)CC1,> 51.5 µg/mL
5,O=C(COC(=O)c1ccccc1O)NCc1ccco1,> 41.3 µg/mL
6,Cc1cc2ccc3ccccc3c2cc1CN(C)C.Cl,24.5 µg/mL
7,Cc1nc2ccc(Cl)cc2c(=O)n1-c1ccccc1Cl,10.4 µg/mL
8,CN(C)CCNS(=O)(=O)c1ccc2c3c(cccc13)C(=O)N2,> 47.9 µg/mL
9,CCCn1c(=O)cc(N)n(-c2ccc(OC(F)(F)F)cc2)c1=O,> 49.4 µg/mL
10,CC1CCC(NC(=O)c2cccn2C)CC1 (stereo not given),> 33 µg/mL
11,CC(C)c1ccc(/C=C/C(=O)NCc2ccc(S(N)(=O)=O)cc2)cc1,5.1 µg/mL
12,O=C(O)CCCCCNC(=O)/C(=C\c1ccco1)NC(=O)c1ccco1,44.3 µg/mL
13,COc1cccc(C(=O)N(C)Cc2c(C)nn(C3CCS(=O)(=O)C3)c2C)c1 (stereo not given),> 58.7 µg/mL
14,CN1CCN(C(=S)c2cn(Cc3cccc(F)c3)c3ccccc23)CC1,28 µg/mL
15,COc1ccc(N=Cc2c(O)n(C)c(=O)[nH]c2=O)cc1,2.2 µg/mL
16,O=C(Cc1ccsc1)Nc1ccccc1F,> 35.3 µg/mL
17,Nc1cc(S(=O)(=O)N2CCOCC2)ccc1N1CCCCC1,42.2 µg/mL
18,COc1ccccc1CNC(=S)NCc1ccc(Cl)cc1,11.8 µg/mL
19,Cc1ccc(NC(=O)CN(C)C(=O)CSc2nccn2C)cc1,> 49.9 µg/mL
20,CCC(Sc1nc(-c2ccccc2)c(-c2ccccc2)[nH]1)C(=O)O (stereo not given),44.8 µg/mL
21,CC(C)c1ccc(NC(=S)N2CCN(C)CC2)cc1,> 41.6 µg/mL
22,COc1ccc(NC(C)=O)cc1S(=O)(=O)N1CC=C(c2ccccc2)CC1,2.6 µg/mL
23,O=c1[nH]c(-c2ccccc2)c(-c2ccccc2)o1,14.8 µg/mL
24,CO/N=C/C(NC(=O)c1ccc(C(F)(F)F)cc1)C(=O)OC (stereo not given),> 47.7 µg/mL

row,Compound,solubility kinetic
1,O=C(O)c1ccc2c(c1)SC1=NS(=O)(=O)CCN12,> 42.6 µg/mL
2,COc1cccc(NC(=O)NCCCCc2ccccc2)c1,12.9 µg/mL
3,CCN(C(=O)COC(=O)c1ccc(Cl)cc1N)C1CCCCC1,2.7 µg/mL
4,CCN1CCN(CCC(=O)Nc2cccc(C)c2)CC1.Cl,46.4 µg/mL
5,COc1ccc(OCC(O)CN2CCOCC2)cc1 (stereo not given),40.1 µg/mL
6,COc1ccccc1CNC(=O)c1cc(-c2cccnc2)nc2ccccc12,0.7 µg/mL
7,O=C(c1cccc(C(F)(F)F)c1)N1CCOc2ccccc21,37.5 µg/mL
8,O=C1CC2(CC(c3ccc(Cl)cc3)=NO2)C(=O)N1c1ccccc1 (stereo not given),48.9 µg/mL
9,COc1ccc(NC(=O)CSc2nc3nc(C)cc(C)c3c(=O)[nH]2)cc1OC,6.5 µg/mL
10,Cc1cc(C)cc(C(=O)OCC(=O)N2CCCCCC2)c1,> 43.4 µg/mL
11,COCCNC(=O)NC(=O)CSc1nc(C)c(C)c(C)n1,> 46.9 µg/mL
12,Cc1ccc(C)n1CCN1CCN(C(=O)c2ccc(Cl)cc2)CC1,36.3 µg/mL
13,O=C(O)C1CC1C(=O)Nc1nc2c(Cl)cccc2s1 (stereo not given),> 44.5 µg/mL
14,O=C(NCc1cccnc1)Nc1cccc(NC(=O)NCc2cccnc2)c1F,7.6 µg/mL
15,O=[N+]([O-])c1cccc(C2(O)COc3ccccc3O2)c1 (stereo not given),> 41 µg/mL
16,Cc1ccc(-c2sc(-c3cccnc3)nc2CC(=O)O)cc1,> 46.6 µg/mL
17,COc1ccc(NC(=O)C2=Cc3cccc(OC)c3OC2)cc1,17.7 µg/mL
18,COc1ccc(CCNC(=O)CSc2ccccn2)cc1,> 45.4 µg/mL
19,CCC(CC)NC(=O)Cn1c(C(C)NC(C)=O)nc2ccccc21 (stereo not given),41.3 µg/mL
20,CC1CN(C(=O)/C(=C/c2ccco2)NC(=O)c2ccccc2)CC(C)O1 (stereo not given),> 53.2 µg/mL
21,O=C(NCCN1CCOCC1)C(Sc1ccccc1)c1ccccc1 (stereo not given),> 53.5 µg/mL
22,O=C1Nc2ccccc2C1(O)c1ccccc1O (stereo not given),> 36.2 µg/mL
23,CCn1c(=O)c(C(=O)CN(C)CC(=O)Nc2cccc(F)c2)c(N)n(Cc2ccccc2)c1=O,15.6 µg/mL
24,CCOC(=O)Cc1csc(NC(=O)CSc2nc(C)cc(C)n2)n1,> 55 µg/mL

row,Compound,solubility kinetic
1,O=C(COC(=O)/C=C/c1ccccc1[N+](=O)[O-])NCc1ccco1,18.7 µg/mL
2,CCN1CCN(c2ccc(NC(=O)c3ccco3)cc2Cl)CC1,45.2 µg/mL
3,COc1ccc(NC(=O)Nc2c(SC)nsc2SC)cc1,1.8 µg/mL
4,Cc1ccc(S(=O)(=O)NCc2ccccn2)cc1C,> 41.5 µg/mL
5,CN(C)/C=N/c1nccc(-c2cccs2)n1,> 34.8 µg/mL
6,NC(=O)CSc1nc(C2CC2)nc2sc3c(c12)CCCC3,< 0.2 µg/mL
7,CC(=O)NC1(C(F)(F)F)NC(=O)N(CCc2ccccc2)C1=O (stereo not given),> 49.4 µg/mL
8,O=C(/C=C/c1cccnc1)c1ccc([N+](=O)[O-])cc1,9.8 µg/mL
9,C=CCn1c(O)c(/C=C2/C=c3ccccc3=N2)c(=O)[nH]c1=S,1.2 µg/mL
10,O=C1CSC(c2ccccc2)N1c1ccc(F)cc1F (stereo not given),38 µg/mL
11,CSc1nc(SCCN(C)C)c2c3c(sc2n1)COC(C)(C)C3,37.4 µg/mL
12,CNc1nc(N)c(C(=O)Nc2cc(C)on2)s1,35.4 µg/mL
13,CC(=O)N1CCN(c2ccc(NC(=O)c3ccccc3)cc2)CC1,40.5 µg/mL
14,Cc1ccc(S(=O)(=O)N2CCN(C(C)CC(=O)O)CC2)cc1 (stereo not given),32.9 µg/mL
15,Cn1c(SCc2ccccc2F)nc2ccccc2c1=O,< 0.3 µg/mL
16,CC(=O)N1CCCC(C(=O)c2ccc(Oc3ccccc3)cc2)C1 (stereo not given),> 48.5 µg/mL
17,CC(CC(=O)O)CC(=O)Nc1ccc(Br)cc1 (stereo not given),> 45 µg/mL
18,O=c1c2cc(Br)ccc2nc(-c2ccccc2)n1O,39.4 µg/mL
19,COc1cc(NC(=O)C(=O)N2CCN(C)CC2)c(OC)cc1Cl,> 51.3 µg/mL
20,O=C(c1cnc2ccccc2n1)N1CCN(c2ccc(C(F)(F)F)cn2)CC1,1 µg/mL
21,Cc1cc(-c2ccccc2)nc(-c2ccccc2)c1C,< 0.6 µg/mL
22,S=C(Nc1ccccc1Cl)NC1CCCCCC1,22 µg/mL
23,Cc1ccc(Cl)c(OCC(=O)Nc2cccnc2)c1,15.6 µg/mL
24,CSc1nsc(SC)c1C(=O)O,> 33.2 µg/mL

row,Compound,solubility kinetic
1,Cc1onc(-c2c(Cl)cccc2Cl)c1/C(N)=N/OC(=O)N(C)C,> 53.6 µg/mL
2,CC1CCN(CCC(=O)N/N=C/c2ccc([N+](=O)[O-])cc2)CC1,> 47.8 µg/mL
3,CC(=O)Nc1ccc(Oc2ccc3c(c2)C(=O)NC3=O)cc1,16.9 µg/mL
4,Cc1cc(Br)ccc1NC(=O)CSCc1c(C)noc1C,30.1 µg/mL
5,O=C(c1ccc(F)cc1)N1CCN(c2ccccn2)CC1,> 42.8 µg/mL
6,Fc1cccc(NC(=S)NCc2ccccc2Cl)c1,1.6 µg/mL
7,O=S(=O)(Cc1ccccc1)Nc1ccccc1,> 37.1 µg/mL
8,CC(=O)c1cc2c(cc1NC(=O)c1ccc(Cl)cc1)OCCO2,< 0.7 µg/mL
9,Cc1ccc2c(CN3CCN(Cc4ccccc4)CC3)cc(=O)oc2c1C,25.4 µg/mL
10,O=C(Nc1cccc(O)c1)c1cccc(C(=O)Nc2cccc(O)c2)c1,1.8 µg/mL
11,COCCn1c(N)c(N(Cc2ccccc2)C(=O)Cc2ccccc2F)c(=O)[nH]c1=O,62.9 µg/mL
12,CN(C)c1ccc(NC(=O)c2cccc([N+](=O)[O-])c2)c2ccccc12,15.1 µg/mL
13,Cc1ccc2c(c1)CCCN2C(=O)c1cc(C)on1,> 38.4 µg/mL
14,O=C(CSCc1ccccc1Cl)NCCSc1ccccn1,50.4 µg/mL
15,CCOc1cc(/C=C2\NC(=O)NC2=O)cc([N+](=O)[O-])c1O,> 44 µg/mL
16,C=Cn1ccnc1P(=S)(c1ccc(Cl)cc1)c1nccn1C=C,46.9 µg/mL
17,COc1ccc(OC)c(NC(=O)NC2CCCCCCC2)c1,2.2 µg/mL
18,CCCCCCOc1ccc(C(CC(=O)NC)C(=O)O)cc1 (stereo not given),> 46.1 µg/mL
19,CN(Cc1ccco1)C(=O)CN1C(=O)NC2(CCCC2)C1=O,43 µg/mL
20,O=c1[nH]c(-c2ccc(O)cc2)nc2scc(-c3cccs3)c12,0.5 µg/mL
21,CC1CN(CCc2ccccc2)c2nc3c(c(=O)n(C)c(=O)n3C)n2C1 (stereo not given),41.7 µg/mL
22,O=S(=O)(c1ccc2oc(=S)[nH]c2c1)N1CCOCC1,> 45.1 µg/mL
23,C/C(=N/NC(=O)c1ccncc1)c1ccc2c(c1)OCO2,> 42.5 µg/mL
24,CN1CCN(C=Nc2nc3ccccc3nc2N2CCCC2)CC1,> 48.7 µg/mL
